The results in this text go back to patent US20240343728A1, “COMPOUNDS THAT INHIBIT PI3K ISOFORM ALPHA AND METHODS FOR TREATING CANCER” (Scorpion Therapeutics, Inc., priority 2021, published 2024).

This test relates to T47D pAKT. Nature of the test: Homogenous Time-Resolved Fluorescence (HTRF) Assay pAKT-T47D. It is filed as cell-based. As to conditions: Homo sapiens; T47D.1 cell line, PI3Kα H1047R mutation present, HTRF detection pAKT (S473), timepoint 1 hour. The protocol:
Homogenous Time-Resolved Fluorescence (HTRF) Assay—pAKT-T47D
Compounds were assayed using homogeneous time-resolved fluorescence (HTRF).
Gibco RPMI 1640 Medium, no phenol red; Gibco RPMI 1640 Medium; Gibco Trypsin-EDTA (0.5%), no phenol red; Gibco DPBS; Trypan blue solution 0.4% (Corning); Avantor Seradigm Premium Grade Fetal Bovine Serum (FBS); Greiner 784080-384 well TC treated white plates; pAKT (Ser473) HTRF; Gibco Insulin, human recombinant, zinc solution; Gibco Recovery Cell Culture Freezing Medium; Countess II FL Automated Cell Counter (ThermoFisher); Countess II Slides (ThermoFisher); Microscope; and PHERAstar FSX Microplate Reader (BMG LABTECH, Inc.).
The scinamic cell line ID was T47D.1, the HTRF detection was pAKT (S473), a PI3Kα H1047R mutation was present, the seeding density was 5000, the timepoint was 1 hour, and the medium used was RPMI+10% FBS (no phenol red)+0.2 units/ml bovine insulin.
The procedure was as follows: • 1. Prepared ARP: • a. Stamped 12.5 nL from 10 mM source plate to destination plate using Echo. Sealed plate immediately and froze at −20° C. if it was not used on the same day. • b. If a frozen ARP was used, the plate was thawed and spun at 1000 rpm×1 min. • 2. Preparation of cells (adherent): • a. Aspirated media from cells. Washed cells with sterile 1×PBS. Aspirated PBS and added appropriate amount of Trypsin. • b. Once cells were fully trypsinized, added appropriate media to resuspend cells. Transferred cells to a 15 mL or 50 mL conical tube. • c. Counted cells on the Countess II Cell Counter. • 3. Plating of cells: • a. Prepared cells at appropriate plating density. Dispensed 12 μL of diluted cells per well of a Greiner 784080-384 well TC treated white plate using a Multidrop Combi to columns 1-23. Added 12 uL of appropriate phenol free media only to column 24. • b. Placed plates in 37° C. tissue culture incubator for appropriate treatment time (refer to “Assay” table). • 4. Prepared HTRF Lysis Buffer • a. Calculate the amount of HTRF lysis buffer master mix needed to perform the desired experiments plus any extra dead volume required for dispensing (4 μL required per well). Dilute the Blocking Reagent into 4× Lysis Buffer at a ratio of 1:25 (i.e. 0.1 mL Blocking Reagent Solution plus 2.4 mL 4× Lysis Buffer). • b. Add 4 uL Lysis buffer master mix to all wells with sample or DMSO. Centrifuge the plates for 1 minute at 1000 rpm. • c. Incubate at room temperature for 30 minutes. • 5. Prepared HTRF Antibody • a. Calculated the amount of HTRF antibody master mix needed to perform the desired experiments plus any extra dead volume required for dispensing ([…]). Eu Cryptate antibody and d2 antibody were added to detection buffer each at a ratio of 1:40 (i.e. 100 μL Eu Cryptate+100 μL d2 Cryptate+3800 μL detection buffer). • b. 4 μL of antibody master mix was added to each well including the media only column 24. • c. Centrifuged the plates for 1 minute at 1000 rpm. Placed lid on and created a “humidity chamber” by placing the plates into a ziplock bag with wet paper towels or something similar and incubated overnight at room temperature, keeping away from light.
• 6. Measured on the PHERAstar/Envision using the HTRF protocol. When plates were read, all wells were read.

Broadly, the IC50 is the concentration needed to halve the response being measured. Low values mean inhibition by little substance, high ones a need for much substance. With `Cc1c([C@@H](Nc2nc3ccc(S(C)(=O)=O)cc3[nH]2)C(C)C)oc2ccc(F)cc12` [Compound 4, (S)-N-(1-(5-fluoro-3-methylbenzofuran-2-yl)-2-methylpropyl)-6-(methylsulfonyl)-1H-benzo[d]imidazol-2-amine], the IC50 was below 200 nM. Turning to `Cc1c([C@@H](Nc2nc3ccc(C(N)=O)cc3[nH]2)C(C)C)oc2ccc(F)cc12` [Compound 2, (S)-2-((1-(5-fluoro-3-methylbenzofuran-2-yl)-2-methylpropyl)amino)-1H-benzo[d]imidazole-6-carboxamide], the IC50 lay within 200 to 500 nM. `Cc1c([C@H](Nc2nc3nc(N)ncc3[nH]2)C(F)(F)F)oc2ccc(F)cc12` [Compound 7b, (S)-N^8-(2,2,2-trifluoro-1-(5-fluoro-3-methylbenzofuran-2-yl)ethyl)-7H-purine-2,8-diamine] had an IC50 of 200 to 500 nM. As for `Cc1c([C@@H](Nc2nc3cc(S(C)(=O)=O)cnc3[nH]2)C(F)(F)F)oc2ccc(F)cc12` [Compound 5a, (R)-6-(methylsulfonyl)-N-(2,2,2-trifluoro-1-(5-fluoro-3-methylbenzofuran-2-yl)ethyl)-3H-imidazo[4,5-b]pyridin-2-amine], the IC50 was in the range of 200 to 500 nM. The result for `Cc1c([C@@H](Nc2nc3ccc(S(N)(=O)=O)cc3[nH]2)C(C)C)oc2ccc(F)cc12` [Compound 3, (S)-2-((1-(5-fluoro-3-methylbenzofuran-2-yl)-2-methylpropyl)amino)-1H-benzo[d]imidazole-6-sulfonamide] reads below 200 nM.

For the compound `Cc1c(C(Nc2nc3cc(S(C)(=O)=O)ccc3[nH]2)C(F)(F)F)oc2ccc(F)cc12` (racemic) [Compound 6b, 5-(methylsulfonyl)-N-(2,2,2-trifluoro-1-(5-fluoro-3-methylbenzofuran-2-yl)ethyl)-1H-benzo[d]imidazol-2-amine], the half-maximal inhibitory concentration (IC50) fell in the range of 200 to 500 nM. The result for `Cc1c([C@@H](Nc2nc3ccc(C#N)cc3[nH]2)C(C)C)oc2ccc(F)cc12` [Compound 1, (S)-2-((1-(5-fluoro-3-methylbenzofuran-2-yl)-2-methylpropyl)amino)-1H-benzo[d]imidazole-6-carbonitrile] reads at least 500 nM.
